Laboratory results published in PMC3382171 (PLoS ONE, 2012).

What was measured:
Test in all cases: biochemical
Parameters in all cases: Invitrogen SelectScreen kinase panel, percent inhibition at 1 uM, ATP at Km
Conditions in all cases: read-out: Invitrogen KSS %Inh at 1 µM
MAPK8 (JNK1) = MAPK8 (JNK1) (Homo sapiens, UniProt P45983)
Procedure, shortened: (§1)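 Commercial kinase panel screens run with ATP at the Km for each kinase. Compounds tested at 1 µM final concentration; values are % inhibition of phosphorylation relative to control.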

MAPK1/ERK2 = MAPK1/ERK2 (Homo sapiens, UniProt P28482)
MAPK1/ERK2, sequence (P28482 whole entry): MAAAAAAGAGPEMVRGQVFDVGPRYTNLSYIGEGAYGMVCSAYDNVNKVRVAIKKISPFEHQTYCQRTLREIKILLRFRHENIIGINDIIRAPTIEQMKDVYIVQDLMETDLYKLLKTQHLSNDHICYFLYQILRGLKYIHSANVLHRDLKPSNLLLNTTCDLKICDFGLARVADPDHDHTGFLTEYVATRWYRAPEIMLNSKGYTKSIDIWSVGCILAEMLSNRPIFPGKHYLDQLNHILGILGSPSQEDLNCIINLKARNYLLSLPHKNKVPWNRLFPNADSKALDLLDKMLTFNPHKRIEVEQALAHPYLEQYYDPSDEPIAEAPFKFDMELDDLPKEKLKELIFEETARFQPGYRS
Procedure, shortened: as §1

GRK4 = GRK4 (Homo sapiens, UniProt P32298)
Procedure, shortened: as §1

FER = FER (Homo sapiens, UniProt P16591)
Procedure, shortened: as §1

CAMK4 (CaMKIV) = CAMK4 (CaMKIV) (Homo sapiens, UniProt Q16566)
Procedure, shortened: as §1

PTK6 (Brk) = PTK6 (Brk) (Homo sapiens, UniProt Q13882)
Procedure, shortened: as §1

TYRO3 (RSE) = TYRO3 (RSE) (Homo sapiens, UniProt Q06418)
TYRO3 (RSE), sequence (Q06418 whole entry): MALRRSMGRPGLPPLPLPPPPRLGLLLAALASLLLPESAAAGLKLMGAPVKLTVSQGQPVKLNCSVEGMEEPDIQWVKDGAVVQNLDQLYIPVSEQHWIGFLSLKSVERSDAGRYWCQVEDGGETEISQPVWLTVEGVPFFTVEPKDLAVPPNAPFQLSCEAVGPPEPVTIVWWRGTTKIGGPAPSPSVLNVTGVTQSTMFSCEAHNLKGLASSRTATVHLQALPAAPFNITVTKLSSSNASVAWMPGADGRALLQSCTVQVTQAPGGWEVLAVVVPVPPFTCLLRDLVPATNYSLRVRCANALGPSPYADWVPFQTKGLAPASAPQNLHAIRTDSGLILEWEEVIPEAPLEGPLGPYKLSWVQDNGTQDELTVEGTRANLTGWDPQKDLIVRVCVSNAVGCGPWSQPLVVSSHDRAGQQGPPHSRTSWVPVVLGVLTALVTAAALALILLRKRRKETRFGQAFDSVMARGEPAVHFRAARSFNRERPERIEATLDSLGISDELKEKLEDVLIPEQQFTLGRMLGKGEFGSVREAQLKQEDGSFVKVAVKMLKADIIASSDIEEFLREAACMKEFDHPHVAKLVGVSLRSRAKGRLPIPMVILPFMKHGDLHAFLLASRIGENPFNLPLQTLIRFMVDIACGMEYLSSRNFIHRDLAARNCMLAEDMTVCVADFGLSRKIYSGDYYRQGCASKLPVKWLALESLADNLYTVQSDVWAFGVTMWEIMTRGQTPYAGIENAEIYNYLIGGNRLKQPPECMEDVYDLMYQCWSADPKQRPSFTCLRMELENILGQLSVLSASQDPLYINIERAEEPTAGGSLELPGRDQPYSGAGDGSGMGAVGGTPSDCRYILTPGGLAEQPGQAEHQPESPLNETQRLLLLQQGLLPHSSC
Procedure, shortened: as §1

ABL1 T315I = ABL1 T315I (Homo sapiens, UniProt P00519, T315I)
Procedure, shortened: as §1

PLK2 = PLK2 (Homo sapiens, UniProt Q9NYY3)
PLK2, sequence (Q9NYY3 whole entry): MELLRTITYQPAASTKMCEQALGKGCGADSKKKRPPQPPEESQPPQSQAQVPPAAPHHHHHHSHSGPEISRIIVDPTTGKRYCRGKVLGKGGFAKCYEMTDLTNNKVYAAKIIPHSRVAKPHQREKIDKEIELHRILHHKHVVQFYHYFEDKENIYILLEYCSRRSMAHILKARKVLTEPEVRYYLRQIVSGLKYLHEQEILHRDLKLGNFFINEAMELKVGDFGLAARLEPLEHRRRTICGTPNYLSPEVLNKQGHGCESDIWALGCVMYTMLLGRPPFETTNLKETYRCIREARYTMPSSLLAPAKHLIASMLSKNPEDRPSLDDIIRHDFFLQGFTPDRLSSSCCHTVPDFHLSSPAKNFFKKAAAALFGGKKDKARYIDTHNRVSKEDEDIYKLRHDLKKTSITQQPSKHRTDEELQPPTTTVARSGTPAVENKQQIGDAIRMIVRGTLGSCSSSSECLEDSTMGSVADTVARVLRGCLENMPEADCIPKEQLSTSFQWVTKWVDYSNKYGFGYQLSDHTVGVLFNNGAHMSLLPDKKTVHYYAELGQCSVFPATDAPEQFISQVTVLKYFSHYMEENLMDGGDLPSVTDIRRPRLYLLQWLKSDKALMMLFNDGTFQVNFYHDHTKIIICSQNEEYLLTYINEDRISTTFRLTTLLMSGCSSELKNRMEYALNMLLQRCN
Procedure, shortened: as §1

ROCK1 = ROCK1 (Homo sapiens, UniProt Q13464)
Procedure, shortened: as §1

ROS1 = ROS1 (Homo sapiens, UniProt P08922)
Procedure, shortened: as §1

MINK1 = MINK1 (Homo sapiens, UniProt Q8N4C8)
Procedure, shortened: as §1

MYLK2 (skMLCK) = MYLK2 (skMLCK) (Homo sapiens, UniProt Q9H1R3)
MYLK2 (skMLCK), sequence (Q9H1R3 whole entry): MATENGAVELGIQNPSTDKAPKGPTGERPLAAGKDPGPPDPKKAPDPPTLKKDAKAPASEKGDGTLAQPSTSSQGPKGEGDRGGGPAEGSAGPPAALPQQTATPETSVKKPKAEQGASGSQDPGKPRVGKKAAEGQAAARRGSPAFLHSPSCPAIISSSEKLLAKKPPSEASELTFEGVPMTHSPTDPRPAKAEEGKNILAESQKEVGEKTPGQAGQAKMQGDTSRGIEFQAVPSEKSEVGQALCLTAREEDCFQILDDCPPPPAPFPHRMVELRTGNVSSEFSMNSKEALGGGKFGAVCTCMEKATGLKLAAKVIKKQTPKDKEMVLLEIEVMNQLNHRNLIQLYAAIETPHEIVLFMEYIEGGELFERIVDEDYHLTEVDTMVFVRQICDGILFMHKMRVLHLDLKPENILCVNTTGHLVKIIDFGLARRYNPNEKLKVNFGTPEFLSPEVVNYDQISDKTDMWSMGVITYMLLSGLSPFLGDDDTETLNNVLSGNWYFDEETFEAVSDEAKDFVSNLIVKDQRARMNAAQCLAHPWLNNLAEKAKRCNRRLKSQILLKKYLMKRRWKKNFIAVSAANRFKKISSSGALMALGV
Procedure, shortened: as §1

PDGFRB (PDGFR beta) = PDGFRB (PDGFR beta) (Homo sapiens, UniProt P09619)
Procedure, shortened: as §1

FGFR4 = FGFR4 (Homo sapiens, UniProt P22455)
FGFR4, sequence (P22455 whole entry): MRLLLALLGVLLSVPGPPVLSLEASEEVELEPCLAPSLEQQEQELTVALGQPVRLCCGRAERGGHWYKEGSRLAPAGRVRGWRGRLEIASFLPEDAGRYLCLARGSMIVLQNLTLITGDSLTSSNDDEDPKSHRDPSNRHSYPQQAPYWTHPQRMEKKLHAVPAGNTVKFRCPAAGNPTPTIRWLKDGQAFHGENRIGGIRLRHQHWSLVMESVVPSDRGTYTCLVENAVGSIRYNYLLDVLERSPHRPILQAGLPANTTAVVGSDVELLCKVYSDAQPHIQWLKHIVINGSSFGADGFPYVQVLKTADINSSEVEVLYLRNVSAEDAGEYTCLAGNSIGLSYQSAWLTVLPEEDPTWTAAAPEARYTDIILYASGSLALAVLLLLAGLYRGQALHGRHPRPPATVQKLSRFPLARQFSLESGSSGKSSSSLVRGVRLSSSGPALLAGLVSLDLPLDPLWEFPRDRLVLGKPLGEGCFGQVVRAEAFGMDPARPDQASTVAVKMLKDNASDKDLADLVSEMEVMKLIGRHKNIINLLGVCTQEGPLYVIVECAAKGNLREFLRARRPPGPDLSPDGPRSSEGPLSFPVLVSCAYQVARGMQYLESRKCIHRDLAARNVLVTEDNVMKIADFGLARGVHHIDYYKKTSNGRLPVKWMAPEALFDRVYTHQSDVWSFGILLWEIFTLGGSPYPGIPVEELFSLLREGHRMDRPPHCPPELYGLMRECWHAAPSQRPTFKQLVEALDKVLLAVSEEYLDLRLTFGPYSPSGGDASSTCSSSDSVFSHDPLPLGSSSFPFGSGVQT
Procedure, shortened: as §1

INSR = INSR (Homo sapiens, UniProt P06213)
Procedure, shortened: as §1

PRKCD (PKC delta) = PRKCD (PKC delta) (Homo sapiens, UniProt Q05655)
Procedure, shortened: as §1

PTK2 (FAK) = PTK2 (FAK) (Homo sapiens, UniProt Q05397)
Procedure, shortened: as §1

ERBB2 (HER2) = ERBB2 (HER2) (Homo sapiens, UniProt P04626)
Procedure, shortened: as §1

ZAP70 = ZAP70 (Homo sapiens, UniProt P43403)
ZAP70, sequence (P43403 whole entry): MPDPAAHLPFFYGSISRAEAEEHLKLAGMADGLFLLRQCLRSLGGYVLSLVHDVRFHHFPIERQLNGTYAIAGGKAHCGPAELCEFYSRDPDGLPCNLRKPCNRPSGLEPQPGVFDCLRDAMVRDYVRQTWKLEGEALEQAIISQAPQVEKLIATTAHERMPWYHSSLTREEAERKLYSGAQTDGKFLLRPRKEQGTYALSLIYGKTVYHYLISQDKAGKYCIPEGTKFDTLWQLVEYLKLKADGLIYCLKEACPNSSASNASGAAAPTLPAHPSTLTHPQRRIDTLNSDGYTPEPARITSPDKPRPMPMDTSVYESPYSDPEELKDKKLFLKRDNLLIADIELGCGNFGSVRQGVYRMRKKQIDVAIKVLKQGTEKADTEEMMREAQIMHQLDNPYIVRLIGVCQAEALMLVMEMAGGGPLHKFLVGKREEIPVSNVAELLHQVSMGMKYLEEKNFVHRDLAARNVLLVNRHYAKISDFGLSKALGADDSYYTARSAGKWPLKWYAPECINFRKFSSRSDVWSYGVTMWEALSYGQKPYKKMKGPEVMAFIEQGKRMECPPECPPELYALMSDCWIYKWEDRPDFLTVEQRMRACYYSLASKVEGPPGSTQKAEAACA
Procedure, shortened: as §1

PIK3CG (p110 gamma) = PIK3CG (p110 gamma) (Homo sapiens, UniProt P48736)
PIK3CG (p110 gamma), sequence (P48736 whole entry): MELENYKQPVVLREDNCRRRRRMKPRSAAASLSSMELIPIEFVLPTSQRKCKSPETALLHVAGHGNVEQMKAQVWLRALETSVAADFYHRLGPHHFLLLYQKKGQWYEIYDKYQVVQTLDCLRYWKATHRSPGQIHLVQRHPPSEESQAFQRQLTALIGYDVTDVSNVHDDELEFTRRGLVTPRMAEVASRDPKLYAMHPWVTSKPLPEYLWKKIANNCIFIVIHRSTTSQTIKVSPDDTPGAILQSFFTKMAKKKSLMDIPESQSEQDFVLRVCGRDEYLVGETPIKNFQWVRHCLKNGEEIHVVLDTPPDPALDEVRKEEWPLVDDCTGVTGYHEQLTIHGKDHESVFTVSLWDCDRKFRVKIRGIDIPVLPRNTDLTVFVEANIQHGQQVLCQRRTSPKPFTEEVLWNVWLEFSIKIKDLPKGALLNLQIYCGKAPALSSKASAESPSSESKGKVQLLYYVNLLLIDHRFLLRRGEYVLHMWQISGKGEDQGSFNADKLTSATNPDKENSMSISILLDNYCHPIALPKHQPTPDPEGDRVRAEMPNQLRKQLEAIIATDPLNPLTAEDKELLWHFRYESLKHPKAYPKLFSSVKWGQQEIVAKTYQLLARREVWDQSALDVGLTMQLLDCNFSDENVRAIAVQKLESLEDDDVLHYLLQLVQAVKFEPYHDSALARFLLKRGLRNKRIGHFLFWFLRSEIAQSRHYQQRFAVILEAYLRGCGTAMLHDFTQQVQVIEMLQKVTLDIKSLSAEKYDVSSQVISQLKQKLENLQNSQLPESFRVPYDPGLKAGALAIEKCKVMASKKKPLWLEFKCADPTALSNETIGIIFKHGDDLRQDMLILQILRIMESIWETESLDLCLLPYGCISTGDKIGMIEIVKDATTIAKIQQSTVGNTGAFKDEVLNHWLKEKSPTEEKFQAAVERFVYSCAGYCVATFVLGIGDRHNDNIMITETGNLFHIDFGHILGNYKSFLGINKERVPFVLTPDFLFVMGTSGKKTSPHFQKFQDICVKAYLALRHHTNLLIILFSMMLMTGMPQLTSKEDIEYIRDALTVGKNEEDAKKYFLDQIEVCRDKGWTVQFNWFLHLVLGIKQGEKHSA
Procedure, shortened: as §1

KDR (VEGFR2) = KDR (VEGFR2) (Homo sapiens, UniProt P35968)
Procedure, shortened: as §1

## N#CCCNc1nccc(-c2cn(CC(F)F)nc2-c2cnc3[nH]ccc3c2)n1 [RAFi, PF-04880594]
MAPK8 (JNK1)
  inhibition at 1 µM: 31%
MAPK1/ERK2
  inhibition at 1 µM: 14%
GRK4
  inhibition at 1 µM: -18%
FER
  inhibition at 1 µM: -2%
CAMK4 (CaMKIV)
  inhibition at 1 µM: -5%
PTK6 (Brk)
  inhibition at 1 µM: 5%
TYRO3 (RSE)
  inhibition at 1 µM: 10%
ABL1 T315I
  inhibition at 1 µM: -21%
PLK2
  inhibition at 1 µM: 37%
ROCK1
  inhibition at 1 µM: 4%
ROS1
  inhibition at 1 µM: 11%
MINK1
  inhibition at 1 µM: 8%
MYLK2 (skMLCK)
  inhibition at 1 µM: 20%
PDGFRB (PDGFR beta)
  inhibition at 1 µM: 2%
FGFR4
  inhibition at 1 µM: 5%
INSR
  inhibition at 1 µM: -4%
PRKCD (PKC delta)
  inhibition at 1 µM: 6%
PTK2 (FAK)
  inhibition at 1 µM: 12%
ERBB2 (HER2)
  inhibition at 1 µM: 10%
ZAP70
  inhibition at 1 µM: 3%
PIK3CG (p110 gamma)
  inhibition at 1 µM: 12%
KDR (VEGFR2)
  inhibition at 1 µM: 33%
